Assay results as given in patent US20250092067A1, “APT1 and APT2 Inhibitors and Uses Thereof” (Cornell University, priority 2021, published 2025).
Values joined by “and” are separate entries in the source; they are usually repeats but may differ in a detail not shown here. Identical values can stand only once. Like-named read-outs stand apart in the source and are kept apart here.

Key:
[1] = molecular target: T1, APT1 (Homo sapiens, UniProt O75608); assay: APT1 enzymatic assay, resorufin acetate as fluorogenic substrate; type: biochemical
T1 construct: made in house; host or cells: E. coli BL21 (DE3)
T1 sequence (O75608 whole entry): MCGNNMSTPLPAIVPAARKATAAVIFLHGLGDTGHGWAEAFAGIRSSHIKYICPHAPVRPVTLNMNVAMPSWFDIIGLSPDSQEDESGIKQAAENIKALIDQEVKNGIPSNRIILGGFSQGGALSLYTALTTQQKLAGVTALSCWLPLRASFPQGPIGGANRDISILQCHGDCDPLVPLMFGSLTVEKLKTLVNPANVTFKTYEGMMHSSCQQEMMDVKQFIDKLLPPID

[2] = molecular target: T2, APT2 (Homo sapiens, UniProt O95372); assay: APT2 enzymatic assay, resorufin acetate as fluorogenic substrate; type: biochemical; design: made in house; host or cells: E. coli BL21 (DE3)
T2 sequence (O95372 whole entry): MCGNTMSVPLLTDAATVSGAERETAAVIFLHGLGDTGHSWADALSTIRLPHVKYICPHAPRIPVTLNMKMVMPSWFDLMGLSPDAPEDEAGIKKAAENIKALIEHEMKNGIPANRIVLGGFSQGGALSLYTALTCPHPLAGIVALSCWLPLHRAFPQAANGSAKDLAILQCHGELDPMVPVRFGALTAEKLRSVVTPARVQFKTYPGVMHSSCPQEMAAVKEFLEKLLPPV

[3] = tested on: STAT3 palmitoylation; assay: STAT3 palmitoylation in HEK 293T cells expressing STAT3 and DHHC7 (endogenous APT2); type: cell-based; conditions: 16-hour treatment; for palmitoylation signal of STAT3: 50 μM
[4] = molecular target: T1, APT1; assay: Competitive in vitro ABPP with TAMRA-FP, cell lysate spiked with APT1; type: binding; conditions: qualitative, FIG. 6C
[5] = 50 mg/kg daily injection
[6] = tested on: off target proteins; assay: TAMRA-FP ABPP in APT2 spiked cell lysate, other bands (off targets); type: binding; conditions: FIG. 8
[7] = molecular target: T2, APT2; assay: Competitive in vitro ABPP with TAMRA-FP, cell lysate spiked with APT2; type: binding; design: made in house; host or cells: E. coli BL21 (DE3); conditions: for inhibition at 90 µM: inhibitor at 90 μM
[8] = tested on: DSS induced colitis; assay: Dextran sodium sulfate (DSS) induced colitis model; type: in vivo, mice; conditions: for lengths of the colons compared to the control groups / colon length longer than the control group / colon length difference to control: 50 mg/kg intraperitoneal; for lengths of the colons compared to the control groups: 2.5% DSS, all groups; for body weight loss / colon length longer than the control group: female mice; for difference in body weight / colon length difference to control: male mice
[9] = molecular target: T2, APT2; assay: Gel filtration assay to identify covalent inhibitors (TAMRA-FP labeling); type: biochemical; design: expressed in transfected cells; host or cells: HEK 293T
[10] = tested on: HEK 293T cells; assay: Cell viability of HEK 293T cells; conditions: at 50 mM (so in the source)
[11] = tested on: SMAD2 palmitoylation; assay: SMAD2 palmitoylation in HEK 293T cells (Alk14 labeling, in-gel fluorescence); type: cell-based; conditions: inhibitors at 25 μM, 6 h
[12] = tested on: STAT3 palmitoylation; assay: STAT3 palmitoylation in HEK 293T cells transfected with STAT3, APT2 and DHHC7; type: cell-based; conditions: inhibitors at 25 μM for 16 hours
[13] = Table 1, resorufin acetate as the substrate, read-out: IC50 (μM) APT1
[14] = Table 2, class symbols, read-out: IC50 (μM) APT1
[15] = Table 1, resorufin acetate as the substrate, read-out: IC50 (μM) APT2
[16] = Table 2, class symbols, read-out: IC50 (μM) APT2
[17] = read-out: inhibition of TAMRA-FP fluorescent labeling of APT2
[18] = Example 3 (FIG. 4), 15 min pre-incubation, read-out: IC50 APT2
[19] = Example 3 (FIG. 4), 15 min pre-incubation

Structure (SMILES)	IC50 [1, 13] [µM]	IC50 [1, 14] [µM]	IC50 [2, 15] [µM]	IC50 [2, 16] [µM]	further results
CCCOc1ccc(N2CCN(C(=O)c3cc4c(s3)-c3ccccc3S(=O)(=O)C4)CC2)cc1 [APT-MY1]	> 200	> 40	0.836	0.1 to 1	–
CCCCCCOc1ccc(N2CCN(C(=O)c3cc4c(s3)-c3ccccc3S(=O)(=O)C4)CC2)cc1 [APT-MY2]	> 200	> 40	2.03	1 to 40	–
CCCNC(=O)c1cc2c(s1)-c1ccccc1S(=O)(=O)C2 [APT-MY3, N-Propyl-4H-thieno[3,2-c]thiochromene-2-carboxamide 5,5-dioxide]	> 200	> 40	> 200	> 40	–
CCCCCCN1CCN(C(=O)c2cc3c(s2)-c2ccccc2S(=O)(=O)C3)CC1 [APT-MY4, (5,5-dioxido-4H-thieno[3,2-c]thiochromen-2-yl) (4-hexylpiperazin-1-yl) methanone]	> 200	> 40	3.99	1 to 40	–
Cc1ccc(NC(=O)c2cc3c(s2)-c2ccccc2S(=O)(=O)C3)cc1 [APT-MY5, N-(p-tolyl)-4H-thieno[3,2-c]thiochromene-2-carboxamide 5,5-dioxide]	> 200	> 40	> 200	> 40	–
CCCCCCCCc1ccc(NC(=O)c2cc3c(s2)-c2ccccc2S(=O)(=O)C3)cc1 [APT-MY6, N-(4-octylphenyl)-4H-thieno[3,2-c]thiochromene-2-carboxamide 5,5-dioxide]	> 200	> 40	> 200	> 40	–
CCCCCCCCNC(=O)c1cc2c(s1)-c1ccccc1S(=O)(=O)C2 [APT-MY7, N-octyl-4H-thieno[3,2-c]thiochromene-2-carboxamide 5,5-dioxide]	> 200	> 40	> 200	> 40	–
COc1ccc(N2CCN(C(=O)c3cc4c(s3)-c3ccccc3[S+]([O-])C4)CC2)cc1 (centres unmarked) [APT-MY8]	> 200	> 40	–	–	–
COc1ccc(N2CCN(C(=O)c3cc4cc(B(O)O)c5ccccc5c4s3)CC2)cc1 [KW5129, (2-(4-(4-Methoxyphenyl)piperazine-1-carbonyl)naphtho[1,2-b]thiophen-5-yl)boronic acid]	–	–	–	–	APT1 IC50 higher than APT2 IC50 ([1]; APT1 IC50 versus APT2 IC50): about 5.2 fold; IC50 ([1]; Example 3 (FIG. 4), 15 min pre-incubation, read-out: IC50 APT1): 0.41 µM; palmitoylated STAT3 ([3]; 25 μM): significant increase; palmitoylation signal of STAT3 [3]: more potent; inhibition of APT1 in competitive ABPP [4]: could also inhibit APT1; tolerability in mice [5]: well tolerated; change of fluorescent intensity in bands other than APT2 (off target reaction) [6]: only seen in the APT2 band; inhibition at 90 µM [7, 17]: ~90%; inhibition of TAMRA-FP fluorescent labeling of APT2 ([7]; inhibitor at 270 μM): almost completely abolished; IC50 [2, 18]: 0.079 µM; more potent at inhibiting APT2 compared with ML349 ([2]; relative to ML349): ~9 times; lengths of the colons compared to the control groups [8]: significant increase; body weight loss [8]: less severe; colon length longer than the control group [8]: 1.4 cm; difference in body weight [8]: no statistically significant difference; colon length difference to control [8]: ~0.5 cm; mode of APT2 inhibition (covalent or non-covalent) ([9]; from gel filtration assay): non-covalent inhibitor; TAMRA-FP fluorescent labeling of APT2 after gel filtration ([9]; lysate treated with inhibitor, passed over size exclusion column): almost complete fluorescent labeling after just one gel filtration
COc1ccc(N2CCN(C(=O)c3cc4cc(B(O)O)c5ccccc5c4s3)CC2)cc1 [KW05129]	0.19	0.1 to 1	0.079	< 0.1	effect on cell viability [10]: no effect; SMAD2 palmitoylation level [11]: slightly better than ML349; time-dependent inhibition of APT2 ([2]; pre-incubation 30 min versus standard): not observed; APT2 IC50 lower than that of ML349 ([2]; relative to ML349): 8.54 fold; STAT3 palmitoylation level (acylation normalized by STAT3 protein) [12]: slightly better than ML349
COc1ccc(N2CCN(C(=O)c3cc4cc(O)c5ccccc5c4s3)CC2)cc1 [KW5130, (5-Hydroxynaphtho[1,2-b]thiophen-2-yl) (4-(4-methoxyphenyl)piperazin-1-yl) methanone]	–	–	–	–	IC50 [2, 18]: ~5 µM
COc1ccc(N2CCN(C(=O)c3ccc(-c4ccccc4B(O)O)s3)CC2)cc1 [KW5175, (2-(5-(4-(4-methoxyphenyl)piperazine-1-carbonyl)thiophen-2-yl)phenyl)boronic acid]	–	–	–	–	IC50 APT2 [2, 19]: much less potent
COc1ccc(N2CCN(C(=O)c3ccc(-c4ccccc4B(O)O)s3)CC2)cc1 [KW05175]	–	–	16.1	1 to 40	–
COc1ccc(N2CCN(C(=O)c3cc4cc(S(=O)(=O)F)c5ccccc5c4s3)CC2)cc1 [KW5191, 2-(4-(4-Methoxyphenyl)piperazine-1-carbonyl)naphtho[1,2-b]thiophene-5-sulfonyl fluoride]	–	–	–	–	IC50 ([2]; IC50 APT2): 1.8 µM
COc1ccc(N2CCN(C(=O)c3cc4cc(S(=O)(=O)F)c5ccccc5c4s3)CC2)cc1 [KW05191]	–	–	–	–	IC50 ([2]; IC50 (μM) APT2): 1.77 µM and 1 to 40 µM
COc1ccc(N2CCN(C(=O)c3cc(B(O)O)cs3)CC2)cc1 [KW5192, (5-(4-(4-Methoxyphenyl)piperazine-1-carbonyl)thiophen-3-yl)boronic acid]	–	–	–	–	IC50 [2, 18]: 1.1 µM
COc1ccc(N2CCN(C(=O)c3cc(B(O)O)cs3)CC2)cc1 [KW05192]	–	–	1.06	1 to 40	–
O=C(CN1CCN(C(=O)c2ccco2)CC1)Nc1cc(C(F)(F)F)ccc1Cl [ML348, reference compound]	–	–	> 200	> 40	–
COc1ccc(N2CCN(C(=O)c3cc4c(s3)-c3ccccc3S(=O)(=O)C4)CC2)cc1 [ML349, reference compound]	> 200	> 40	0.675	0.1 to 1	effect on cell viability [10]: no effect; APT2 selectivity / inhibition of APT1 ([1]; qualitative, FIG. 4): selective for APT2; palmitoylation signal of STAT3 [3]: slightly increased; change of fluorescent intensity in bands other than APT2 (off target reaction) [6]: only seen in the APT2 band; inhibition at 90 µM [7, 17]: ~70%; inhibition at 270 µM ([7]; inhibitor at 270 μM, read-out: inhibition of TAMRA-FP fluorescent labeling of APT2): ~70%; STAT3 palmitoylation level (acylation normalized by STAT3 protein) [12]: increase STAT3 palmitoylation levels; lengths of the colons compared to the control groups [8]: significant increase; body weight loss [8]: less severe; colon length longer than the control group [8]: 1.4 cm; difference in body weight [8]: no statistically significant difference; colon length difference to control [8]: ~0.5 cm
CCCOc1ccc(N2CCN(C(=O)c3cc4c(s3)-c3ccccc3S(=O)(=O)C4)CC2)cc1 [MY1, (5,5-Dioxido-4H-thieno[3,2-c]thiochromen-2-yl) (4-(4-propoxyphenyl)piperazin-1-yl) methanone]	–	–	–	–	IC50 APT2 [2, 19]: did not improve the potency
CCCCCCOc1ccc(N2CCN(C(=O)c3cc4c(s3)-c3ccccc3S(=O)(=O)C4)CC2)cc1 [MY2, (5,5-dioxido-4H-thieno[3,2-c]thiochromen-2-yl) (4-(4-(hexyloxy)phenyl)piperazin-1-yl) methanone]	–	–	–	–	IC50 APT2 [2, 19]: did not improve the potency
